Experimental data: US10597388B2, “Pyridazinone herbicides” (FMC CORPORATION, priority 2014, dated 2020)

Assays:
Assay in all cases: Test C greenhouse herbicide test, pre- and postemergence
Assay type in all cases: in vivo
[1] = system: lambsquarters (Chenopodium album)
Outline: (§1)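 Visual ratings on a 0 to 100 scale (0 = no effect, 100 = complete control) versus untreated controls, scored 13–15 d after treatment. Soil-applied preemergence to seeded loam/sand; foliar postemergence to 1- to 4-leaf plants (2–18 cm) in peat-vermiculite mix; compounds formulated in solvent plus surfactant.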

[2] = system: corn (Zea mays)
Outline: as §1

[3] = system: nutsedge, yellow (yellow nutsedge, Cyperus esculentus)
Outline: as §1

[4] = system: ryegrass, Italian (Italian ryegrass, Lolium multiflorum)
Outline: as §1

[5] = system: waterhemp (common waterhemp, Amaranthus rudis)
Outline: as §1

[6] = system: pigweed (Amaranthus retroflexus)
Outline: as §1

[7] = system: barnyardgrass (Echinochloa crus-galli)
Outline: as §1

[8] = system: wheat (winter wheat, Triticum aestivum)
Outline: as §1

[9] = system: soybean (Glycine max)
Outline: as §1

[10] = system: johnsongrass (Sorghum halepense)
Outline: as §1

[11] = system: ragweed (common ragweed, Ambrosia elatior)
Outline: as §1

[12] = system: morningglory (Ipomoea coccinea)
Outline: as §1

[13] = system: blackgrass (Alopecurus myosuroides)
Outline: as §1

[14] = system: velvetleaf (Abutilon theophrasti)
Outline: as §1

[15] = system: crabgrass, large (large crabgrass, Digitaria sanguinalis)
Outline: as §1

[16] = Postemergence, 31 g ai/ha, 0 to 100 scale (0 no effect, 100 complete control)
[17] = Postemergence, 125 g ai/ha, scale 0 to 100, 0 is no effect, 100 is complete control
[18] = Postemergence, 250 g ai/ha, scale 0 to 100, 0 no effect, 100 complete control, 13 to 15 d
[19] = Preemergence, 31 g ai/ha, scale 0 to 100, 0 is no effect, 100 is complete control
[20] = Preemergence, 62 g ai/ha, scale 0 to 100, 0 is no effect, 100 is complete control
[21] = Preemergence, 125 g ai/ha, scale 0 to 100, 0 is no effect, 100 is complete control
[22] = Preemergence, 250 g ai/ha, scale 0 to 100, 0 no effect, 100 complete control
[23] = postemergence, 62 g ai/ha, scale 0 to 100, 0 no effect, 100 complete control

Cc1nn(C)c(=O)c(-c2ccc(F)c3ccccc23)c1O [Compound 41]
Lambsquarters plant response rating [1, 16]: 90 | Plant response rating, Lambsquarters [1, 17]: 95 | Plant response rating, Lambsquarters [1, 18]: 98 | Plant response rating, Lambsquarters [1, 19]: 75 | Plant response rating, Lambsquarters [1, 20]: 90 | Plant response rating, Lambsquarters [1, 21]: 100 | Lambsquarters plant response rating [1, 22]: 90 | Lambsquarters plant response rating [1, 23]: 95 | Corn plant response rating [2, 16]: 5 | Plant response rating, Corn [2, 17]: 10 | Plant response rating, Corn [2, 18]: 20 | Plant response rating, Corn [2, 19]: 0 | Plant response rating, Corn [2, 20]: 0 | Plant response rating, Corn [2, 21]: 5 | Corn plant response rating [2, 22]: 40 | Corn plant response rating [2, 23]: 5 | Nutsedge, Yellow plant response rating [3, 16]: 65 | Plant response rating, Nutsedge, Yellow [3, 17]: 65 | Plant response rating, Nutsedge, Yellow [3, 18]: 80 | Plant response rating, Nutsedge, Yellow [3, 19]: 60 | Plant response rating, Nutsedge, Yellow [3, 20]: 75 | Plant response rating, Nutsedge, Yellow [3, 21]: 75 | Nutsedge, Yellow plant response rating [3, 22]: 80 | Nutsedge, Yellow plant response rating [3, 23]: 65 | Ryegrass, Italian plant response rating [4, 16]: 80 | Plant response rating, Ryegrass, Italian [4, 17]: 90 | Plant response rating, Ryegrass, Italian [4, 18]: 90 | Plant response rating, Ryegrass, Italian [4, 19]: 95 | Plant response rating, Ryegrass, Italian [4, 20]: 95 | Plant response rating, Ryegrass, Italian [4, 21]: 95 | Ryegrass, Italian plant response rating [4, 22]: 95 | Ryegrass, Italian plant response rating [4, 23]: 90 | Waterhemp plant response rating [5, 16]: 75 | Plant response rating, Waterhemp [5, 17]: 90 | Plant response rating, Waterhemp [5, 18]: 85 | Plant response rating, Waterhemp [5, 19]: 85 | Plant response rating, Waterhemp [5, 20]: 95 | Plant response rating, Waterhemp [5, 21]: 100 | Waterhemp plant response rating [5, 22]: 100 | Waterhemp plant response rating [5, 23]: 75 | Pigweed plant response rating [6, 16]: 65 | Plant response rating, Pigweed [6, 17]: 75 | Plant response rating, Pigweed [6, 18]: 95 | Plant response rating, Pigweed [6, 19]: 75 | Plant response rating, Pigweed [6, 20]: 100 | Plant response rating, Pigweed [6, 21]: 100 | Pigweed plant response rating [6, 22]: 100 | Pigweed plant response rating [6, 23]: 75 | Barnyardgrass plant response rating [7, 16]: 25 | Plant response rating, Barnyardgrass [7, 17]: 40 | Plant response rating, Barnyardgrass [7, 18]: 60 | Plant response rating, Barnyardgrass [7, 19]: 10 | Plant response rating, Barnyardgrass [7, 20]: 40 | Plant response rating, Barnyardgrass [7, 21]: 85 | Barnyardgrass plant response rating [7, 22]: 95 | Barnyardgrass plant response rating [7, 23]: 35 | Wheat plant response rating [8, 16]: 10 | Plant response rating, Wheat [8, 17]: 30 | Plant response rating, Wheat [8, 18]: 5 | Plant response rating, Wheat [8, 19]: 0 | Plant response rating, Wheat [8, 20]: 5 | Plant response rating, Wheat [8, 21]: 50 | Wheat plant response rating [8, 22]: 65 | Wheat plant response rating [8, 23]: 0 | Soybean plant response rating [9, 16]: 15 | Plant response rating, Soybean [9, 17]: 20 | Plant response rating, Soybean [9, 18]: 15 | Plant response rating, Soybean [9, 19]: 0 | Plant response rating, Soybean [9, 20]: 20 | Plant response rating, Soybean [9, 21]: 50 | Soybean plant response rating [9, 22]: 55 | Soybean plant response rating [9, 23]: 15 | Johnsongrass plant response rating [10, 16]: 5 | Plant response rating, Johnsongrass [10, 17]: 10 | Plant response rating, Johnsongrass [10, 18]: 35 | Plant response rating, Johnsongrass [10, 19]: 0 | Plant response rating, Johnsongrass [10, 20]: 50 | Plant response rating, Johnsongrass [10, 21]: 35 | Johnsongrass plant response rating [10, 22]: 35 | Johnsongrass plant response rating [10, 23]: 10 | Ragweed plant response rating [11, 16]: 70 | Plant response rating, Ragweed [11, 17]: 95 | Plant response rating, Ragweed [11, 18]: 100 | Plant response rating, Ragweed [11, 19]: 85 | Plant response rating, Ragweed [11, 20]: 85 | Plant response rating, Ragweed [11, 21]: 95 | Ragweed plant response rating [11, 22]: 100 | Ragweed plant response rating [11, 23]: 85 | Morningglory plant response rating [12, 16]: 95 | Plant response rating, Morningglory [12, 17]: 100 | Plant response rating, Morningglory [12, 18]: 98 | Plant response rating, Morningglory [12, 19]: 85 | Plant response rating, Morningglory [12, 20]: 95 | Plant response rating, Morningglory [12, 21]: 95 | Morningglory plant response rating [12, 22]: 98 | Morningglory plant response rating [12, 23]: 95 | Blackgrass plant response rating [13, 16]: 30 | Plant response rating, Blackgrass [13, 17]: 50 | Plant response rating, Blackgrass [13, 18]: 60 | Plant response rating, Blackgrass [13, 19]: 70 | Plant response rating, Blackgrass [13, 20]: 80 | Plant response rating, Blackgrass [13, 21]: 85 | Blackgrass plant response rating [13, 22]: 90 | Blackgrass plant response rating [13, 23]: 35 | Velvetleaf plant response rating [14, 16]: 30 | Plant response rating, Velvetleaf [14, 17]: 85 | Plant response rating, Velvetleaf [14, 18]: 90 | Plant response rating, Velvetleaf [14, 19]: 85 | Plant response rating, Velvetleaf [14, 20]: 90 | Plant response rating, Velvetleaf [14, 21]: 95 | Velvetleaf plant response rating [14, 22]: 98 | Velvetleaf plant response rating [14, 23]: 65 | Crabgrass, Large plant response rating [15, 16]: 5 | Plant response rating, Crabgrass, Large [15, 17]: 25 | Plant response rating, Crabgrass, Large [15, 18]: 35 | Plant response rating, Crabgrass, Large [15, 19]: 30 | Plant response rating, Crabgrass, Large [15, 20]: 35 | Plant response rating, Crabgrass, Large [15, 21]: 65 | Crabgrass, Large plant response rating [15, 22]: 70 | Crabgrass, Large plant response rating [15, 23]: 10
